Data on one cell line can be found in the supplement of paper PMC10307832.

What all share (assay): relative viability (nuclei count vs DMSO), 5 days (fraction); higher = more cells survive
Compound in the assay “Vandetanib + Linsitinib”: COc1cc2/c(=N/c3ccc(Br)cc3F)nc[nH]c2cc1OCC1CCN(C)CC1 [Vandetanib] + C[C@]1(O)C[C@@H](c2nc(-c3ccc4ccc(-c5ccccc5)nc4c3)c3c(N)nccn32)C1 [Linsitinib] (partner 1 µM)
Put shortly:
(§1)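 For relative viability, nuclei counts in treated wells were divided by those in vehicle wells. Lung cancer cell lines had been pin-tool dosed in 1536-well plates the day after seeding and cultured for 5 days, then fixed and stained in one step (final 0.05% Triton X-100, 1% formaldehyde, 1 ug/ml Hoechst) and imaged at 4×. Doses were one drug alone or a fixed anchor-drug dose plus five library-drug doses (not always all listed) in √10 steps, and values are duplicate-plate medians.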

Compound in the assay “CUDC-101 + Crizotinib”: C#Cc1cccc(Nc2ncnc3cc(OC)c(OCCCCCCC(=O)NO)cc23)c1 [CUDC-101] + C[C@@H](Oc1cc(-c2cnn(C3CCNCC3)c2)cnc1N)c1c(Cl)ccc(F)c1Cl [Crizotinib] (partner 1 µM)
Put shortly: as §1

Compound in the assay “CUDC-101 + OSI-027”: C#Cc1cccc(Nc2ncnc3cc(OC)c(OCCCCCCC(=O)NO)cc23)c1 [CUDC-101] + COc1cccc2cc(-c3nc([C@H]4CC[C@H](C(=O)O)CC4)n4ncnc(N)c34)[nH]c12 [OSI-027] (partner 0.5 µM)
In outline: as §1

Compound in the assay “Vandetanib + Trametinib”: COc1cc2/c(=N/c3ccc(Br)cc3F)nc[nH]c2cc1OCC1CCN(C)CC1 [Vandetanib] + CC(=O)Nc1cccc(-n2c(=O)n(C3CC3)c(=O)c3c(Nc4ccc(I)cc4F)n(C)c(=O)c(C)c32)c1 [Trametinib] (partner 0.02 µM)
In outline:
as §1

Take UMC-11: the relative viability was 0.978 in the assay with Vandetanib + Linsitinib (first compound 0.02 µM); 0.994 with Vandetanib + Linsitinib (first compound 0.06325 µM); 0.97 in the assay with Vandetanib + Linsitinib (first compound 0.2 µM); 0.885 with Vandetanib + Linsitinib (first compound 0.6325 µM); 1 in the assay with Vandetanib + Linsitinib (first compound 2 µM); 0.67 with CUDC-101 + Crizotinib (first compound 0.01 µM). In addition, the relative viability with CUDC-101 + Crizotinib (first compound 0.03162 µM) was 0.577; with CUDC-101 + Crizotinib (first compound 0.1 µM), 0.404; with CUDC-101 + Crizotinib (first compound 0.3162 µM), 0.215; with CUDC-101 + Crizotinib (first compound 1 µM), 0.136; with CUDC-101 + OSI-027 (first compound 0.01 µM), 0.505; with CUDC-101 + OSI-027 (first compound 0.03162 µM), 0.521. Besides, the relative viability worked out at 0.426 with CUDC-101 + OSI-027 (first compound 0.1 µM); 0.172 with CUDC-101 + OSI-027 (first compound 0.3162 µM); 0.105 in the assay with CUDC-101 + OSI-027 (first compound 1 µM); 0.82 with Vandetanib + Trametinib (first compound 0.02 µM); 0.674 in the assay with Vandetanib + Trametinib (first compound 0.06325 µM); 0.627 in the assay with Vandetanib + Trametinib (first compound 0.2 µM). The relative viability in the assay with Vandetanib + Trametinib (first compound 0.6325 µM) was 0.632; in the assay with Vandetanib + Trametinib (first compound 2 µM), 0.583.
